According to patent US4701406A, “Assay for the detection of epigenetic toxic (non-genotoxic) substances” (priority 1984, dated 1987):
Like-named read-outs stand apart in the source and are kept apart here.

Legend:
[1] = tested on: cytoskeletal elements (microtubules and microfilaments) of Swiss 3T3 cells
skin = details: cited from earlier work
[2] = tested on: cytoskeletal elements (microtubules) of quiescent 3T3 cells
genetic material = details: presently used assays; cited from earlier work
[3] = Table I; recognized by U.S. Department of Health and Human Services; cited from earlier work
tubulin = details: in vitro; cited from earlier work

With `O=[As][O-].[Na+]` [As(III) as NaAsO2, NaAsO2] the “Cytoskeletal Perturbation” value [1] was “positive”.
For `O=[N+]([O-])c1ccc(Cl)c([N+](=O)[O-])c1` [CDNB, 1-Chloro-2,4-dinitro-benzene], the allergic contact dermatitis (skin) is listed as “severe allergic contact dermatitis”, the “Cytoskeletal Perturbation” value ([1]; 5.0 × 10^-6 M, 2.0 hrs, FIG. 1g) is listed as “positive” and the “Cytoskeletal Disruption” value ([2]; 5 × 10^-6 M, 2 hours, FIG. 2b) is listed as “positive”. The “identification by genotoxicity / mutagenicity assays” value (genetic material) was “consistently failed to be identified”.
With `O=S(=O)([O-])[O-].[Cd+2]` [Cd(II) as CdSO4, CdSO4] the “Cytoskeletal Perturbation” value ([1]; 2.5 × 10^-5 M, 3.0 hrs, FIG. 1c) was “positive”.
For `O=S(=O)([O-])[O-].[Co+2]` [Co(II) as CoSO4, CoSO4], the “Cytoskeletal Perturbation” value ([1]; 4.0 × 10^-4 M, 17.0 hrs, FIG. 1f) is listed as “positive” and the “Health Hazardous Activity (carcinogen / promoter)” value [3] is listed as “Carcinogen”.
With `[K+].[K+].[O]=[Cr](=[O])([O-])[O][Cr](=[O])(=[O])[O-]` [Cr(VI) as K2 Cr2 O7, K2 Cr2 O7] the “Cytoskeletal Perturbation” value [1] was “positive” and the “Cytoskeletal Disruption” value ([2]; 1.2 × 10^-3 M, 3 hours, FIG. 2c) was “positive”.
In the case of `O=[N+]([O-])c1ccc(F)c([N+](=O)[O-])c1` [FDNB, fluorodinitrobenzene], the allergic contact dermatitis (skin) is listed as “severe allergic contact dermatitis”.
For `O=S(=O)([O-])[O-].[Ni+2]` [Ni(II) as NiSO4, NiSO4], the “Cytoskeletal Perturbation” value [1] was “positive” and the “Cytoskeletal Disruption” value ([2]; 1.5 × 10^-3 M, 3 hours, FIG. 2d) was “positive”.
For `Nc1ccc(N)cc1` [PPD, P--Phenylene-diamine], the skin sensitization (skin; human as well as animal studies) is given as “potent skin sensitizers”, the “Health Hazardous Activity (potent skin sensitizer)” value (skin; identified by skin patch test) is given as “sensitizer” and the “Cytoskeletal Perturbation” value ([1]; 5.0 × 10^-4 M, 3.5 hrs, FIG. 1h) is given as “positive”. The “identification by genotoxicity / mutagenicity assays” value (genetic material) was “consistently failed to be identified”.
For `CC(=O)O[C@H]1C(=O)[C@@]2(C)[C@H]([C@H](OC(=O)c3ccccc3)[C@]3(O)C[C@H](OC(=O)[C@H](O)[C@@H](NC(=O)c4ccccc4)c4ccccc4)C(C)=C1C3(C)C)[C@]1(OC(C)=O)CO[C@@H]1C[C@@H]2O` [taxol], the tubulin polymerization (tubulin) is listed as “promote tubulin polymerization in vitro”, the “effectiveness, taxol introduced prior to vs simultaneously with the epigenetic substances” value ([2]; prior to or simultaneous treatment) is listed as “no discernible difference in effectiveness” and the “Cytoskeletal Disruption” value ([2]; taxol alone, 12 × 10^-6 M, 2 hours, FIG. 2h) is listed as “negative”.
